The structures appear in SMILES notation. Values after ≈ are worked out from the molar mass of the structure shown.

The results in this text go back to patent US7211596B2, “Stable high-concentration injection containing pyrazolone derivative” (Mitsubishi Pharma Corporation, priority 2001, dated 2007).

The series in a line: Test 1: solubility of Edaravone in various aqueous solubilizer solutions (saturated solution at 4° C., HPLC). The series is classed as physicochemical. To be noted: aqueous with cosolvent or surfactant or cyclodextrin, thermodynamic from solid. As for the experimental part:
Water for injection (5 mL) was added to 5 mL of each of ethanol, propylene glycol, polyethylene glycol 400 and N,N-dimethylacetamide widely used as a solubilizer for an intravenous injection, followed by stirring. Edaravone was added to the resulting aqueous solubilizer solution and the mixture was stirred in a thermostat maintained at 4° C. by using a stirrer at a fixed but not bubbling speed all day and night. After completion of the stirring, a portion of Edaravone which had remained undissolved was checked visually to confirm that each solution thus obtained was a saturated aqueous solution of Edaravone. Then, the solution was quickly filtered through a membrane filter (pore size: 0.45 μm) kept at 4° C. and the amount of Edaravone contained in the filtrate was measured by HPLC method as explained below. Further, the maximum amount of each of the solubilizers used a day as an injection for intravenous administration was also shown (Iyakuhin-tenkabutu-jiten 2000 (published by Yakuji-nippou-sha), p. 127, 264 and 229 to 230. The maximum amount of ethanol was calculated based on the amount used for NIMOTOP IV (registered trademark, Bayer Co.)) and its solubilizing effect on Edaravone was calculated as a numerical term.
Measuring Method by HPLC and its Conditions:
By liquid chromatography (LC) using ethyl paraaminobenzoate as an internal standard substance, a peak area ratio of Edaravone to the internal standard substance was found and based on it, the concentration of Edaravone was determined. • Detector: Ultraviolet spectrophotometer (wavelength measured: 240 nm) • Column: A stainless tube having inside diameter of about 4 mm and length of about 15 cm and filled with octadecylsilylated silica-gel 5 μm was used at a fixed temperature near 50° C. • Mobile phase: A (3:1) mixed solution of 10 mM aqueous acetic acid solution and methanol, adjusted to pH 5.5 with aqueous ammonia • Flow rate: adjusted so that the retention time of Edaravone would be about 8 minutes.

As usually defined, the solubility is the concentration that dissolves in the medium under given conditions. A high value points to a readily soluble substance. As to `CC1=NN(c2ccccc2)C(=O)C1` [Edaravone, 3-Methyl-l-phenyl-2-pyrazolin-5-one], the solubility turned out to be 20 mg/mL (≈ 115 mM) (50 v/v % N,N-dimethylacetamide in water, in 50 v/v % N,N-Dimethylacetamide, 4° C.); 10 mg/mL (≈ 57.4 mM) (50 v/v % ethanol in water, in 50 v/v % Ethanol, 4° C.); 13 mg/mL (≈ 74.6 mM) (50 v/v % polyethylene glycol 400 in water, in 50 v/v % Polyethylene glycol 400, 4° C.); 6 mg/mL (≈ 34.4 mM) (50 v/v % propylene glycol in water, in 50 v/v % Propylene glycol, 4° C.).
